According to ChEMBL document CHEMBL5512666, “Selenization of Small Molecule Drugs: A New Player on the Board” (J Med Chem, 2024):
≈ marks a conversion by molar mass, not a printed value.

Key:
[1] = test system: HeLa; test: Cytotoxicity against human HeLa cells assessed as inhibition of cell growth incubated for 96 hrs by MTT assay; format: functional, cell-based
[2] = test system: HepG2; test: Cytotoxicity against human HepG2 cells assessed as inhibition of cell growth incubated for 96 hrs by MTT assay; format: functional, cell-based; settings: HepG2, 96 h
[3] = test system: A549; test: Cytotoxicity against human A549 cells assessed as inhibition of cell growth incubated for 96 hrs by MTT assay; format: functional, cell-based; settings: A549, 96 h
[4] = test system: SMMC-7721; test: Cytotoxicity against human SMMC-7721 cells assessed as inhibition of cell growth incubated for 96 hrs by MTT assay; format: functional, cell-based; settings: SMMC-7721, 96 h
[5] = Antioxidant activity assessed as reduction in peroxynitrite mediated L-tyrosine nitration by measuring remaining activity relative to control; format: functional; design: concentration or dose not given beside the values
[6] = test system: Human alphaherpesvirus 3; test: Antiviral activity against VZV infected in African green monkey Vero cells assessed as reduction in virus-induced cytopathic effect incubated for 3 days by MTT assay; format: functional, organism-based; settings: Human alphaherpesvirus 3, Vero, 72 h
[7] = test system: Human alphaherpesvirus 2; test: Antiviral activity against HSV-2 infected in African green monkey Vero cells assessed as reduction in virus-induced cytopathic effect incubated for 3 days by MTT assay; format: functional, organism-based; settings: Human alphaherpesvirus 2, Vero, 72 h
[8] = test system: Human betaherpesvirus 5; test: Antiviral activity against […] infected in African green monkey Vero cells assessed as reduction in virus-induced cytopathic effect incubated for 3 days by MTT assay; format: functional, organism-based; settings: Human betaherpesvirus 5, Vero, 72 h
[9] = test system: Human alphaherpesvirus 1; test: Antiviral activity against HSV-1 infected in African green monkey Vero cells assessed as reduction in virus-induced cytopathic effect incubated for 3 days by MTT assay; format: functional, organism-based; settings: Human alphaherpesvirus 1, Vero, 72 h
[10] = Cytotoxicity against human SGC cells assessed as reduction in cell viability incubated for 96 hrs by MTT assay; format: toxicity, cell-based
[11] = test system: OVCAR-3; test: Antiproliferative activity against human OVCAR-3 cells; format: functional, cell-based
[12] = test system: ES-2; test: Antiproliferative activity against human ES2 cells; format: functional, cell-based
[13] = Antiproliferative activity against human OVCAR-10 cells; format: functional, cell-based
[14] = test system: HEK-293T; test: Antiproliferative activity against HEK293T; format: functional, cell-based; settings: Homo sapiens
[15] = Antiproliferative activity against human HEY A8 cells; format: functional, cell-based
[16] = Antioxidant activity assessed as inhibition of peroxynitrite mediated L-tyrosine nitration in sodium phosphate buffer at pH 7.5 incubated for 7 mins by RP-HPLC analysis; format: functional
[17] = Cytotoxicity against mouse L929 cells measured after 72 hrs; format: toxicity, cell-based
[18] = test system: HCT-116; test: Cytotoxicity against human HCT-116 cells measured after 72 hrs; format: functional, cell-based; settings: HCT-116, 72 h
[19] = test system: A549; test: Cytotoxicity against human A549 cells measured after 72 hrs; format: functional, cell-based; settings: A549, 72 h
[20] = Cytotoxicity against mouse NIH3T3 cells measured after 72 hrs; format: toxicity, cell-based
[21] = test system: HeLa; test: Cytotoxicity against human HeLa cells measured after 72 hrs; format: functional, cell-based
[22] = molecular target: Lactoperoxidase (Homo sapiens, UniProt P22079); test: Inhibition of LPO (unknown origin)-mediated L-tyrosine nitration incubated for 20 mins in presence of H2O2 and sodium nitrite by RP-HPLC analysis
Lactoperoxidase, sequence (P22079 whole entry): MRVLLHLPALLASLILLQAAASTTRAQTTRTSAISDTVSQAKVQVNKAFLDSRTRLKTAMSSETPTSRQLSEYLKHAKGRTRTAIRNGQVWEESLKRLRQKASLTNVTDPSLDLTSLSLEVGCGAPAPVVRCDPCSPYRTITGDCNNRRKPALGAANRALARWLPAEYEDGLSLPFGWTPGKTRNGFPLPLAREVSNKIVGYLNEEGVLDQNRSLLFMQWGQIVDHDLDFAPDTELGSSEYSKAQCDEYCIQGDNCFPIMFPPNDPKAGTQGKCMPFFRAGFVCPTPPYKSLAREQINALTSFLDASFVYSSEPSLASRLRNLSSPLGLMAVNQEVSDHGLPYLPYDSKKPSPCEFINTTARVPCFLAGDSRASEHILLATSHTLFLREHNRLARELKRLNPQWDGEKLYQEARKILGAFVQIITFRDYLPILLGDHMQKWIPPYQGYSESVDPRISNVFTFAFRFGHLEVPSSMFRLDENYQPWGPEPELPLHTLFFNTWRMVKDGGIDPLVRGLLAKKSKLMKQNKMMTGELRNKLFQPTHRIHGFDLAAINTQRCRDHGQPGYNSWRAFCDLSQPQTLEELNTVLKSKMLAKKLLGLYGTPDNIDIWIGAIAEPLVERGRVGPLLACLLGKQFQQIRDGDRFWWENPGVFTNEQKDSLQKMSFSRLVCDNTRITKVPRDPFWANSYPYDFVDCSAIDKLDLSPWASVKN

[23] = test system: MHCC97H; test: Antiproliferative activity against human MHCC97H cells assessed as reduction in cell viability incubated for 48 hrs by MTT assay; format: functional, cell-based
[24] = Inhibition of TrxR (unknown origin) expressed in MHCC97H cells incubated for 24 hrs by colorimetric assay; format: cell-based, Homo sapiens
[25] = Cytotoxicity against human A549 cells assessed as reduction in cell viability incubated for 96 hrs by MTT assay; format: toxicity, cell-based
[26] = test system: Candida albicans; test: Antifungal activity against azole-resistant Candida albicans clinical isolate 17 assessed as fungal growth inhibition incubated for 24 hrs by CLSI protocol based broth microdilution method; format: functional
[27] = test system: Candida albicans; test: Antifungal activity against azole-resistant Candida albicans clinical isolate 901 assessed as fungal growth inhibition incubated for 24 hrs by CLSI protocol based broth microdilution method; format: functional
[28] = test system: Candida albicans; test: Antifungal activity against azole-resistant Candida albicans clinical isolate 904 assessed as fungal growth inhibition incubated for 24 hrs by CLSI protocol based broth microdilution method; format: functional
[29] = test system: Candida albicans; test: Antifungal activity against azole-resistant Candida albicans clinical isolate CaR assessed as fungal growth inhibition incubated for 24 hrs by CLSI protocol based broth microdilution method; format: functional
[30] = test system: Candida albicans; test: Antifungal activity against azole-resistant Candida albicans clinical isolate 632 assessed as fungal growth inhibition incubated for 24 hrs by CLSI protocol based broth microdilution method; format: functional
[31] = Cytotoxicity against human MDA-MB-231 cells assessed as reduction in cell viability incubated for 96 hrs by MTT assay; format: toxicity, cell-based

SMILES: Nc1ccn([C@@H]2O[C@H](CO)[C@@H](O)C2(F)F)c(=O)n1 [GEMCITABINE]
- IC50 [1]: 3.9 µM
- IC50 [2]: 2.46 µM
- IC50 [3]: 0.69 µM
- IC50 [4]: 0.46 µM

SMILES: C=C1N(C)C=CN1CCCCn1ccn(C)c1=[Se]
- Activity [5]: 56%

SMILES: NC1=Nc2c(ncn2C[Se]C(CO)CO)C(N)N1 (configuration not stated)
- EC50 [6]: > 100 µM
- EC50 [7]: > 100 µM
- EC50 [8]: 34.3 µM
- EC50 [9]: > 100 µM

SMILES: COc1cc2c(c(OC)c1OC)-c1ccc(OC)c(=O)cc1[C@@H](NC(C)=O)CC2 [COLCHICINE]
- IC50 at 96 h [10]: 0.045 µg/mL (≈ 0.113 µM)

SMILES: CNC1NC(N)=Nc2c1ncn2C[Se]C(CO)CO (configuration not stated)
- EC50 [6]: > 100 µM
- EC50 [7]: > 100 µM
- EC50 [8]: 32.1 µM
- EC50 [9]: > 100 µM

SMILES: CC[Se]C(=O)CCCC[C@@H]1SC[C@@H]2NC(=O)N[C@@H]21
- IC50 [11]: 34.2 µM
- IC50 [12]: 14.5 µM
- IC50 [13]: 40.4 µM
- IC50 [14]: 38.8 µM
- IC50 [15]: 12.8 µM

SMILES: O=c1[nH]cc(F)c(=O)[nH]1 [FLUOROURACIL]
- IC50 [11]: 18.9 µM
- IC50 [12]: 25.9 µM
- IC50 [13]: 26.4 µM
- IC50 [14]: 56.2 µM
- IC50 [15]: 48.4 µM

SMILES: N#C[Se]CCOC(=O)CCCC[C@@H]1SC[C@@H]2NC(=O)N[C@@H]21
- IC50 [11]: 11.8 µM
- IC50 [12]: 9.85 µM
- IC50 [13]: 18.6 µM
- IC50 [14]: 77.2 µM
- IC50 [15]: 14.1 µM

SMILES: Cn1ccn(C)c1=[Se]
- Activity [5]: 66.5%
- IC50 [16]: 12.2 µM

SMILES: CC[C@@]1(O)C(=O)OCc2c1cc1n(c2=O)Cc2cc3ccccc3nc2-1 [CAMPTOTHECIN]
- IC50 at 72 h [17]: 1.13 µM
- IC50 [18]: 0.011 µM
- IC50 [19]: 0.021 µM
- IC50 at 72 h [20]: 0.086 µM
- IC50 [21]: 0.108 µM

SMILES: CN1C=CN(CCn2ccn(C)c2=[Se])C1
- Activity [5]: 68.4%

SMILES: CC[C@@]1(OC(=O)OCc2ccc(O/C=C/[Se]c3ccccc3)cc2)C(=O)OCc2c1cc1n(c2=O)Cc2cc3ccccc3nc2-1
- IC50 at 72 h [17]: 10.2 µM
- IC50 [18]: 0.043 µM
- IC50 [19]: 0.102 µM
- IC50 at 72 h [20]: 1.18 µM
- IC50 [21]: 0.308 µM

SMILES: C[Se]C(=O)CCCC[C@@H]1SC[C@@H]2NC(=O)N[C@@H]21
- IC50 [11]: 22.3 µM
- IC50 [12]: 9.84 µM
- IC50 [13]: 24.9 µM
- IC50 [14]: 31.5 µM
- IC50 [15]: 20.2 µM

SMILES: COc1cccc(Cn2ccn(Cc3cccc(OC)c3)c2=S)c1
- IC50 [22]: 137 µM

SMILES: N#Cc1cccc(-c2ccc(=O)n(Cc3cccc(-c4ncc([Se]CCN5CCCC5)cn4)c3)n2)c1
- IC50 [23]: 0.063 µM
- IC50 [24]: 0.8 µM

SMILES: CNC1NC(N)=Nc2c1ncn2C[Se]CCO (configuration not stated)
- EC50 [6]: > 100 µM
- EC50 [7]: 17.6 µM
- EC50 [8]: > 100 µM
- EC50 [9]: 14.3 µM

SMILES: C=C1N(C)C=CN1CCCCCn1ccn(C)c1=[Se]
- Activity [5]: 45%

SMILES: N#C[Se]CCCOC(=O)CCCC[C@@H]1SC[C@@H]2NC(=O)N[C@@H]21
- IC50 [11]: > 100 µM
- IC50 [12]: 91.6 µM
- IC50 [13]: > 100 µM
- IC50 [14]: > 100 µM
- IC50 [15]: 22.3 µM

SMILES: N#Cc1cccc(-c2ccc(=O)n(Cc3cccc(-c4ncc([Se]CCCN5CCCCC5)cn4)c3)n2)c1
- IC50 [23]: 0.038 µM
- IC50 [24]: 0.654 µM

SMILES: c1ccc(-c2nn[se]c2-n2cncn2)cc1
- IC50 at 96 h [25]: 20.5 µg/mL (≈ 74.3 µM)
- MIC [26]: 16 µg/mL (≈ 57.9 µM)
- IC50 at 96 h [10]: 30.8 µg/mL (≈ 111 µM)
- MIC [27]: 32 µg/mL (≈ 116 µM)
- MIC [28]: 32 µg/mL (≈ 116 µM)
- MIC [29]: 2 µg/mL (≈ 7.24 µM)
- MIC [30]: 32 µg/mL (≈ 116 µM)
- IC50 at 96 h [31]: 80.7 µg/mL (≈ 292 µM)

SMILES: CN(C)CCC[Se]c1cnc(-c2cccc(Cn3nc(-c4cccc(C#N)c4)ccc3=O)c2)nc1
- IC50 [23]: 0.01 µM

SMILES: C=C1N(C)C=CN1CCCn1ccn(C)c1=[Se]
- Activity [5]: 29%
